In ChEMBL document CHEMBL6120939, “STATs, promising targets for the treatment of autoimmune and inflammatory diseases” (Eur J Med Chem, 2024):
Blank lines part the entries; values can stand above or below the molecule they belong to.

Tests used:
[1] = Inhibition of C57BL/6 mouse Th17 cell differentiation from CD4+ T cells assessed as reduction in IL-17a mRNA expression incubated for 96 hrs by qPCR analysis; format: functional, cell-based; conditions: C57BL/6, Th17, 96 h
[2] = target: Signal transducer and activator of transcription 3 (Homo sapiens, UniProt P40763); experiment: Inhibition of STAT3 phosphorylation in human HepG2 cells by immuno-fluorescence analysis; format: cell-based
Chain of Signal transducer and activator of transcription 3 (P40763 whole entry): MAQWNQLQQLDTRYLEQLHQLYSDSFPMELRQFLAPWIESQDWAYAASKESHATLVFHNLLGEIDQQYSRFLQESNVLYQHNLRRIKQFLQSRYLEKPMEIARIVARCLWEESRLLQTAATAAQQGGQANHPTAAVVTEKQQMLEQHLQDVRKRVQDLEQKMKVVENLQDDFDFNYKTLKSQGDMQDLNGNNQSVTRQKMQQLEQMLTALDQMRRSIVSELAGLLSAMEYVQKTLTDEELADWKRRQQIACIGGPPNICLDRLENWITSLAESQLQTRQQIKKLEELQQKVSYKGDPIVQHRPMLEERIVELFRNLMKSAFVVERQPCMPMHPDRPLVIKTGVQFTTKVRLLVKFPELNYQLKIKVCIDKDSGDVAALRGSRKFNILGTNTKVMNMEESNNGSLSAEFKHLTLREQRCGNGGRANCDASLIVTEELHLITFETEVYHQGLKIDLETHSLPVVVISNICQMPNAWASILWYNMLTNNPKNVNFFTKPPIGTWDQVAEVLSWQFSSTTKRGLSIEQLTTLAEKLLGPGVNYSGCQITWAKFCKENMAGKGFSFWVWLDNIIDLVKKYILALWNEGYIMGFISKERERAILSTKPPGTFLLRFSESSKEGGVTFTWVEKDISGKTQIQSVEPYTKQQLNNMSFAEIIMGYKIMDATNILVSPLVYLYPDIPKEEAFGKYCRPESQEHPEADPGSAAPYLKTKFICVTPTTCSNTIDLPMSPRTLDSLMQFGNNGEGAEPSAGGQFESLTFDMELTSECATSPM

[3] = tested on: Rattus norvegicus; experiment: Antiinflammatory activity against TNBS-induced colitis in Sprague-Dawley rat model assessed as reduction in colon TNFalpha level at 1 mg/kg, po administered for 5 days by ELISA; format: functional, organism-based; conditions: 120 h
[4] = tested on: Mus musculus; experiment: Anti-asthmatic activity in OVA-induced ip dosed female BALB/c mouse model assessed as reduction in pulmonary IL-13 level administered for 30 min measured after 21 days by ELISA; format: functional, organism-based
[5] = tested on: Mus musculus; experiment: Anti-inflammatory activity against DSS-induced acute colitis C57BL/6J mouse model assessed as reduction in IL-1beta level in colon at 10 to 20 mg/kg, po measured for 7 days by ELISA analysis; format: functional, organism-based; conditions: 168 h

Structure (SMILES): Cc1ccc(S(=O)(=O)OCC(=O)Nc2ccc(C(=O)O)c(O)c2)cc1
IC50 [3]: 86000 nM

Structure (SMILES): NC(=O)c1cnc(Nc2ccc(N3CCOCC3)cc2)nc1NCc1c(F)ccc(F)c1F
IC50 [4]: 0.7 nM

Structure (SMILES): CN(C)C(=O)Oc1cccc2c1C(=O)c1cccc(S(N)(=O)=O)c1C2=O
IC50 [1]: 220 nM

Structure (SMILES): Cc1cc(OCCCS(C)(=O)=O)cc(C)c1-c1cccc(COc2ccc3c(c2)OC[C@H]3CC(=O)O)c1 [FASIGLIFAM]
IC50 [5]: 4740 nM

Structure (SMILES): NC(=O)c1cnc(NCCc2ccc(O)c(Cl)c2)nc1NCc1ccccc1
IC50 [4]: 21 nM

Structure (SMILES): COc1ccc(S(=O)(=O)Nc2cc(-c3c(O)ccc4ccccc34)c(O)c3ccccc23)cc1 [C-188-9]
IC50 [3]: 4000 nM

Continued, values first:

IC50 [1]: 180 nM
Structure (SMILES): NS(=O)(=O)c1cccc2c1C(=O)c1cccc(O)c1C2=O

IC50 [2]: 12200 nM
Structure (SMILES): CC1CC(=O)c2c(ccc3c2C(=O)c2cccc(O)c2C3=O)C1 (stereo not drawn)
